This note sets out measurements from PubChem BioAssay AID250 (DTP/NCI, 2004).

Where “and” joins values, the source holds several entries; their conditions need not be identical. Equal values may be shown once. Inconclusive results and toxic doses are left out.

The test deals with BDF1 mice, L1210 leukemia sc, survival T/C. Put plainly: NCI In Vivo Anticancer Drug Screen. Data for tumor model L1210 Leukemia (subcutaneous) in B6D2F1 (BDF1) mice. Conditions: endpoint: median survival time, higher = longer survival. As to the method:
The antitumor activity of compounds was measured in mice bearing transplantable tumors. Survival or tumor size were measured and the results are expressed as the measurement made in the treated group (T) divided by the measurement made in the vehicle treated control group (C). The tumor model used in this assay is L1210 Leukemia (subcutaneous) in B6D2F1 (BDF1) mice

Setting [1] is: dose: 14.0 mg/kg/injection, schedule: Q01DX Z (sc), vehicle: water.
Setting [2] is: dose: 23.0 mg/kg/injection, schedule: Q01DX Z (sc), vehicle: methylcellulose (MC).
Where [3] appears, read: dose: 39.0 mg/kg/injection, schedule: Q01DX Z (sc), vehicle: methylcellulose (MC).
The mark [4] stands for this setting: dose: 65.0 mg/kg/injection, schedule: Q01DX Z (sc), vehicle: methylcellulose (MC).
Where [5] appears, read: dose: 108.0 mg/kg/injection, schedule: Q01DX Z (sc), vehicle: methylcellulose (MC).
The mark [6] stands for this setting: dose: 180.0 mg/kg/injection, schedule: Q01DX Z (sc), vehicle: methylcellulose (MC).
The mark [7] stands for this setting: dose: 300.0 mg/kg/injection, schedule: Q01DX Z (sc), vehicle: methylcellulose (MC).

As to `CCCCCn1c(C)cc(/C=C\c2ccc3cc(C)ccc3[n+]2C)c1C`, the T/C is 100 % of control (dose: 0.23 mg/kg/injection, schedule: Q01DX Z (sc), vehicle: methylcellulose (MC)); 100 % of control (dose: 0.39 mg/kg/injection, schedule: Q01DX Z (sc), vehicle: methylcellulose (MC)); 100 % of control (dose: 0.65 mg/kg/injection, schedule: Q01DX Z (sc), vehicle: methylcellulose (MC)); 100 % of control (dose: 1.08 mg/kg/injection, schedule: Q01DX Z (sc), vehicle: methylcellulose (MC)); 100 % of control (dose: 1.8 mg/kg/injection, schedule: Q01DX Z (sc), vehicle: methylcellulose (MC)).

For `Nc1nc(=S)c2ncn(C3CC(O)C(CO)O3)c2[nH]1` (stereo not drawn), the T/C reads like this: (dose: 9.0 mg/kg/injection, schedule: Q02DX005 (sc), vehicle: saline) 160 % of control; (dose: 12.5 mg/kg/injection, schedule: Q02DX005 (sc), vehicle: saline) 177 % of control; (dose: 18.0 mg/kg/injection, schedule: Q02DX005 (sc), vehicle: saline) 162 % of control; (dose: 25.0 mg/kg/injection, schedule: Q02DX005 (sc), vehicle: saline) 177 % of control; (dose: 37.0 mg/kg/injection, schedule: Q02DX005 (sc), vehicle: saline) 152 % of control; (dose: 50.0 mg/kg/injection, schedule: Q01DX009 (sc), vehicle: saline) 100 % of control and 103 % of control. For the same compound, the T/C is, setting by setting: (dose: 50.0 mg/kg/injection, schedule: Q02DX005 (sc), vehicle: saline) 177 % of control; (dose: 100.0 mg/kg/injection, schedule: Q01DX009 (sc), vehicle: saline) 105 % of control and 108 % of control; (dose: 100.0 mg/kg/injection, schedule: Q02DX005 (sc), vehicle: saline) 150 % of control; (dose: 150.0 mg/kg/injection, schedule: Q02DX005 (sc), vehicle: saline) 120 % of control; (dose: 200.0 mg/kg/injection, schedule: Q01DX009 (sc), vehicle: saline) 122 % of control; (dose: 400.0 mg/kg/injection, schedule: Q01DX009 (sc), vehicle: saline) 155 % of control. Besides, under “dose: 600.0 mg/kg/injection, schedule: Q02DX005 (sc), vehicle: saline”, the T/C is 158 % of control.

For `CC[C@@]1(O)C(=O)OCc2c1cc1n(c2=O)Cc2cc3ccccc3nc2-1`, the T/C by setting is: (dose: 0.65 mg/kg/injection, schedule: Q01DX Z (sc), vehicle: carboxymethylcellulose (CMC)) 100 % of control; (dose: 1.08 mg/kg/injection, schedule: Q01DX Z (sc), vehicle: carboxymethylcellulose (CMC)) 100 % of control; (dose: 1.8 mg/kg/injection, schedule: Q01DX Z (sc), vehicle: carboxymethylcellulose (CMC)) 122 % of control; (dose: 3.0 mg/kg/injection, schedule: Q01DX Z (sc), vehicle: carboxymethylcellulose (CMC)) 118 % of control.

In the case of `O=C(NP(=O)(N1CC1)N1CC1)OCc1ccccc1`, the T/C (dose: 3.0 mg/kg/injection, schedule: Q01DX Z (sc), vehicle: water) was 111 % of control; the T/C under setting [1] was 111 % of control; the T/C (dose: 23.0 mg/kg/injection, schedule: Q01DX Z (sc), vehicle: water) was 111 % of control.

On to `C=CCCCCCCCCC(C)(N)C(=O)O` (stereo not drawn), for which the T/C reads like this: (dose: 14.0 mg/kg/injection, schedule: Q01DX Z (sc), vehicle: methylcellulose (MC)) 100 % of control; under setting [2], 90 % of control; under setting [3], 90 % of control; under setting [4], 95 % of control; under setting [5], 95 % of control; under setting [6], 100 % of control. Under setting [7], the T/C was 95 % of control.

In the case of `CN=C(NC)c1ccc(NC(=O)c2ccc(C(=O)Nc3ccc(C(=NC)NC)cc3)c(Cl)c2)cc1`, the T/C was 100 % of control under setting [3]; 100 % of control under setting [4]; 100 % of control under setting [5]; 105 % of control under setting [6]; 100 % of control under setting [7].

In the case of `CCOC(=O)c1ccc(N)nc1`, the T/C (dose: 1.81 mg/kg/injection, schedule: Q01DX Z (sc), vehicle: water) was 100 % of control; the T/C (dose: 3.02 mg/kg/injection, schedule: Q01DX Z (sc), vehicle: water) was 100 % of control; the T/C (dose: 5.04 mg/kg/injection, schedule: Q01DX Z (sc), vehicle: water) was 100 % of control; the T/C (dose: 8.4 mg/kg/injection, schedule: Q01DX Z (sc), vehicle: water) was 100 % of control; the T/C under setting [1] is 100 % of control; the T/C (dose: 23.3 mg/kg/injection, schedule: Q01DX Z (sc), vehicle: water) was 100 % of control. For the setting “dose: 38.9 mg/kg/injection, schedule: Q01DX Z (sc), vehicle: water”, the T/C was 100 % of control.

On to `CCC(=O)O[C@H]1CC[C@H]2[C@@H]3CC[C@H]4CC(=O)[C@H](C)C[C@]4(C)[C@H]3CC[C@]12C`, for which the T/C runs as follows: under setting [2], 100 % of control; under setting [4], 100 % of control; under setting [5], 100 % of control; under setting [6], 100 % of control.

For the compound `CCCCCCCCCCCCCCCC(=O)OCC1OC(n2ccc(N)nc2=O)C(O)C1O` (stereo not drawn), the T/C runs as follows: (dose: 9.38 mg/kg/injection, schedule: Q01DX009 (ip), vehicle: saline) 211 % of control; (dose: 9.38 mg/kg/injection, schedule: Q01DX009 (sc), vehicle: saline) 177 % of control; (dose: 18.75 mg/kg/injection, schedule: Q01DX009 (ip), vehicle: saline) 233 % of control; (dose: 18.75 mg/kg/injection, schedule: Q01DX009 (sc), vehicle: saline) 233 % of control; (dose: 18.75 mg/kg/injection, schedule: Q04DX003 (sc), vehicle: saline) 183 % of control; (dose: 37.5 mg/kg/injection, schedule: Q01DX001 (ip), vehicle: saline) 155 % of control. The T/C is, setting by setting: (dose: 37.5 mg/kg/injection, schedule: Q01DX001 (sc), vehicle: saline) 161 % of control; (dose: 37.5 mg/kg/injection, schedule: Q01DX009 (sc), vehicle: saline) 188 % of control; (dose: 37.5 mg/kg/injection, schedule: Q04DX003 (ip), vehicle: saline) 216 % of control; (dose: 37.5 mg/kg/injection, schedule: Q04DX003 (sc), vehicle: saline) 233 % of control; (dose: 75.0 mg/kg/injection, schedule: Q01DX001 (ip), vehicle: saline) 194 % of control; (dose: 75.0 mg/kg/injection, schedule: Q01DX001 (sc), vehicle: saline) 95 % of control and 98 % of control and 233 % of control. Also, the T/C (dose: 75.0 mg/kg/injection, schedule: Q01DX009 (sc), vehicle: saline) was 150 % of control; the T/C (dose: 75.0 mg/kg/injection, schedule: Q04DX003 (ip), vehicle: saline) was 227 % of control; the T/C (dose: 75.0 mg/kg/injection, schedule: Q04DX003 (sc), vehicle: saline) is 244 % of control; the T/C (dose: 150.0 mg/kg/injection, schedule: Q01DX001 (ip), vehicle: saline) was 255 % of control; the T/C (dose: 150.0 mg/kg/injection, schedule: Q01DX001 (sc), vehicle: saline) is 95 % of control and 98 % of control and 238 % of control; the T/C (dose: 150.0 mg/kg/injection, schedule: Q01DX009 (ip), vehicle: saline) was 122 % of control. Further, the T/C runs as follows: (dose: 150.0 mg/kg/injection, schedule: Q04DX003 (ip), vehicle: saline) 177 % of control; (dose: 150.0 mg/kg/injection, schedule: Q04DX003 (sc), vehicle: saline) 150 % of control; (dose: 600.0 mg/kg/injection, schedule: Q01DX001 (ip), vehicle: saline) 116 % of control.

As for `Nc1ccc(S(=O)(=O)Nc2ccc(Nc3c4ccccc4nc4ccccc34)cc2)cc1`, the T/C runs as follows: (dose: 1.5 mg/kg/injection, schedule: Q01DX009 (ip), vehicle: saline with Tween-80) 100 % of control; (dose: 3.0 mg/kg/injection, schedule: Q01DX009 (ip), vehicle: saline with Tween-80) 112 % of control; (dose: 6.0 mg/kg/injection, schedule: Q01DX009 (ip), vehicle: saline with Tween-80) 112 % of control; (dose: 12.0 mg/kg/injection, schedule: Q01DX009 (ip), vehicle: saline with Tween-80) 112 % of control.
